According to PMC2990605 (British Journal of Cancer, 2010):

Test: Adverse events (CTCAEv3.0), worst grade per patient regardless of relation, and laboratory parameters
Type: in vivo
Conditions: human, in vivo
Procedure: Toxicity was evaluated according to common toxicity criteria for adverse events (CTCAEv3.0). The MTD was defined as the dose level(s) at which at least two out of six patients developed DLT.
Toxicity assessment, haematology and clinical biochemistry were performed at baseline and weekly during the study. Physical and ECOG performance status were recorded at baseline and before the next cycle.

SMILES: CC(C)C[C@@H](C(=O)N[C@H](C(=O)OC1CCCC1)c1ccccc1)[C@H](O)C(=O)NO [tosedostat]
- Cough, CTCAE grade 3, patients: 0
- Cough, CTCAE grade 4, patients: 0
- Cough, patients with events, %: 41%
- Cystitis, CTCAE grade 1, patients: 0
- Cystitis, CTCAE grade 2, patients: 1
- Cystitis, CTCAE grade 3, patients: 1
- Cystitis, CTCAE grade 4, patients: 0
- Cystitis, patients with events, %: 9%
- Dehydration, CTCAE grade 1, patients: 0
- Dehydration, CTCAE grade 2, patients: 1
- Dehydration, CTCAE grade 3, patients: 1
- Dehydration, CTCAE grade 4, patients: 0
- Dehydration, patients with events, %: 9%
- Diabetes mellitus, CTCAE grade 1, patients: 0
- Diabetes mellitus, CTCAE grade 2, patients: 0
- Diabetes mellitus, CTCAE grade 3, patients: 1
- Diabetes mellitus, CTCAE grade 4, patients: 0
- Diabetes mellitus, patients with events, %: 5%
- Diarrhoea, CTCAE grade 1, patients: 5
- Diarrhoea, CTCAE grade 2, patients: 3
- Diarrhoea, CTCAE grade 3, patients: 0
- Diarrhoea, CTCAE grade 4, patients: 0
- Diarrhoea, patients with events, %: 36%
- Dizziness, CTCAE grade 1, patients: 8
- Dizziness, CTCAE grade 2, patients: 1
- Dizziness, CTCAE grade 3, patients: 1
- Dizziness, CTCAE grade 4, patients: 0
- Dizziness, patients with events, %: 45%
- Drug hypersensitivity, CTCAE grade 1, patients: 3
- Drug hypersensitivity, CTCAE grade 2, patients: 1
- Drug hypersensitivity, CTCAE grade 3, patients: 7
- Drug hypersensitivity, CTCAE grade 4, patients: 0
- Drug hypersensitivity, patients with events, %: 50%
- Dry skin, CTCAE grade 1, patients: 3
- Dry skin, CTCAE grade 2, patients: 0
- Dry skin, CTCAE grade 3, patients: 1
- Dry skin, CTCAE grade 4, patients: 0
- Dry skin, patients with events, %: 18%
- Dyspnoea, CTCAE grade 1, patients: 6
- Dyspnoea, CTCAE grade 4, patients: 0
- Eosinophilic myocarditis, CTCAE grade 1, patients: 0
- Eosinophilic myocarditis, CTCAE grade 2, patients: 0
- Eosinophilic myocarditis, CTCAE grade 3, patients: 0
- Eosinophilic myocarditis, CTCAE grade 4, patients: 0
- Eosinophilic myocarditis, patients with events, %: 5%
- Erythema, CTCAE grade 1, patients: 1
- Erythema, CTCAE grade 2, patients: 0
- Erythema, CTCAE grade 3, patients: 1
- Erythema, CTCAE grade 4, patients: 0
- Erythema, patients with events, %: 9%
- Fatigue, CTCAE grade 1, patients: 5
- Fatigue, CTCAE grade 2, patients: 10
- Fatigue, CTCAE grade 3, patients: 6
- Fatigue, CTCAE grade 4, patients: 0
- Fatigue, patients with events, %: 95%
- Gastric dilatation, CTCAE grade 1, patients: 0
- Gastric dilatation, CTCAE grade 2, patients: 0
- Gastric dilatation, CTCAE grade 3, patients: 1
- Gastric dilatation, CTCAE grade 4, patients: 0
- Gastric dilatation, patients with events, %: 5%
- General physical health deterioration, CTCAE grade 1, patients: 0
- General physical health deterioration, CTCAE grade 2, patients: 0
- General physical health deterioration, CTCAE grade 3, patients: 1
- General physical health deterioration, CTCAE grade 4, patients: 0
- General physical health deterioration, patients with events, %: 5%
- Hypercalcaemia, CTCAE grade 1, patients: 0
- Hypercalcaemia, CTCAE grade 2, patients: 0
- Hypercalcaemia, CTCAE grade 3, patients: 1
- Hypercalcaemia, CTCAE grade 4, patients: 0
- Hypercalcaemia, patients with events, %: 5%
- Hyperglycaemia, CTCAE grade 1, patients: 0
- Hyperglycaemia, CTCAE grade 2, patients: 1
- Hyperglycaemia, CTCAE grade 3, patients: 2
- Hyperglycaemia, CTCAE grade 4, patients: 0
- Hyperglycaemia, patients with events, %: 14%
- Hyperhidrosis, CTCAE grade 1, patients: 2
- Hyperhidrosis, CTCAE grade 2, patients: 0
- Hyperhidrosis, CTCAE grade 3, patients: 1
- Hyperhidrosis, CTCAE grade 4, patients: 0
- Hyperhidrosis, patients with events, %: 14%
- Leukopenia, CTCAE grade 1, patients: 0
- Leukopenia, CTCAE grade 2, patients: 1
- Leukopenia, CTCAE grade 3, patients: 3
- Leukopenia, CTCAE grade 4, patients: 0
- Leukopenia, patients with events, %: 18%
- Malaise, CTCAE grade 1, patients: 1
- Malaise, CTCAE grade 2, patients: 1
- Malaise, CTCAE grade 3, patients: 1
- Malaise, CTCAE grade 4, patients: 0
- Malaise, patients with events, %: 14%
- Mucosal inflammation, CTCAE grade 1, patients: 4
- Mucosal inflammation, CTCAE grade 2, patients: 1
- Mucosal inflammation, CTCAE grade 3, patients: 0
- Mucosal inflammation, CTCAE grade 4, patients: 0
- Mucosal inflammation, patients with events, %: 23%
- Myalgia, CTCAE grade 1, patients: 8
- Myalgia, CTCAE grade 2, patients: 1
- Myalgia, CTCAE grade 3, patients: 1
- Myalgia, CTCAE grade 4, patients: 0
- Myalgia, patients with events, %: 45%
- Nasopharyngitis, CTCAE grade 1, patients: 6
- Nasopharyngitis, CTCAE grade 2, patients: 0
- Nasopharyngitis, CTCAE grade 3, patients: 0
- Nasopharyngitis, CTCAE grade 4, patients: 0
- Nasopharyngitis, patients with events, %: 27%
- Nausea, CTCAE grade 1, patients: 9
- Nausea, CTCAE grade 2, patients: 1
- Nausea, CTCAE grade 3, patients: 0
- Nausea, CTCAE grade 4, patients: 0
- Nausea, patients with events, %: 45%
- Neoplasms benign, malignant and unspecified (including cysts and polyps), patients with events, %: 14%
- Nervous system disorders, patients with events, %: 95%
- Neutropenia, CTCAE grade 1, patients: 0
- Neutropenia, CTCAE grade 2, patients: 0
- Neutropenia, CTCAE grade 3, patients: 2
- Neutropenia, CTCAE grade 4, patients: 4
- Neutropenia, patients with events, %: 27%
- Oedema peripheral, CTCAE grade 1, patients: 6
- Oedema peripheral, CTCAE grade 2, patients: 2
- Oedema peripheral, CTCAE grade 3, patients: 0
- Oedema peripheral, CTCAE grade 4, patients: 0
- Oedema peripheral, patients with events, %: 36%
- Oedema, CTCAE grade 1, patients: 4
- Oedema, CTCAE grade 2, patients: 0
- Oedema, CTCAE grade 3, patients: 1
- Oedema, CTCAE grade 4, patients: 0
- Oedema, patients with events, %: 23%
- Peripheral sensory neuropathy, CTCAE grade 1, patients: 6
- Peripheral sensory neuropathy, CTCAE grade 2, patients: 4
- Peripheral sensory neuropathy, CTCAE grade 3, patients: 3
- Peripheral sensory neuropathy, CTCAE grade 4, patients: 0
- Peripheral sensory neuropathy, patients with events, %: 59%
- Pollakiuria, CTCAE grade 1, patients: 0
- Pollakiuria, CTCAE grade 2, patients: 0
- Pollakiuria, CTCAE grade 3, patients: 1
- Pollakiuria, CTCAE grade 4, patients: 0
